According to patent US20130303482A1, “Cylodextrin Complexation Methods for Formulating Peptide Proteasome Inhibitors” (ONYX THERAPEUTICS, INC., priority 2012, published 2013):
≈ marks a conversion by molar mass, not a printed value.

What was measured:
[1] = Solubility of carfilzomib as a function of SBECD concentration, pH 1.5 and 3.5, 5° C. and 25° C. (Example 4); assay type: physicochemical; conditions: SBECD solutions, citric acid 30 mM, pH 1.5 and 3.5, 5° C. vs 25° C., 24 hours
Method: The experiments at acidic conditions below the target pH values and titrated to pH 1.5 or 3.5 using aqueous sodium hydroside solution. Measurements of solubilized concentration were those from samples analyzed after 24 hours of time to equilibrate.

[2] = Slurry complexation / solubilization of CFZ-API in SBECD with citric acid (Example 1); assay type: physicochemical
Method: In a 525 L stainless steel jacketed cooled tank controlled to 2° C.-8° C., a suspension of 2.0 kg carfilzomib-API (CFZ-API), 246 kg water for injection (WFI), and 100 kg sulfobutylether beta-cyclodextrin (SBECD) was prepared. Specifically, in the 525 L stainless steel jacketed cooled tank controlled to 2° C.-8° C., 100 kg SBECD was dissolved in 246 kg WFI. The Carfilzomib suspension was then prepared using 2.0 kg of CFZ-API. Mixing was performed using an impeller mixer to maintain suspension of the CFZ-API solids and dissolve the SBECD. In the same vessel, a probe style rotor-stator high shear mixer (homogenizer) was used as well as the low shear impeller. The high shear mixer was operated for approximately 1 hour yielding an even suspension and reduction of particle size for any larger primary particles or agglomerated API. After a suspension was achieved, 1.96 kg of citric acid was added as a 16% aqueous solution. The pH of the solution was then lowered inducing partial solubilization of the CFZ-API followed by and complexation due to the presence of SBECD. Mixing was continued for a further 24 hours with both the impeller and the high shear mixer and a dissolved concentration of CFZ-API of greater than 5.1 mg/mL was achieved. The suspension containing greater than 5.1 mg/mL of dissolved complexed CFZ-API was filtered with a 0.45 micrometer clarifying filter, then accurately diluted to a dissolved concentration of 5.0 mg/mL and pH adjusted with 1 N sodium hydroxide solution to achieve pH 3.5. The solution was sterile filtered, with two sequential 0.22 micrometer sterilizing filters, then filled into vials 12.36 mL each, containing 61.8 mg per vial of CFZ-API. The vials were partially stoppered and loaded into a lyophilizer and freeze dried over 103 hours using a freezing temperature of −45° C., primary drying temperature of −15° C., and secondary drying of +30° C. The lyophilized vials were fully stoppered, and capped, then stored at the product stability temperature of 2° C.-8° C. for up to two years before use. […]

[3] = CDP (chlorohydrin degradation product) formation in lyophilized complexed carfilzomib vs pH, water and sodium chloride content, HPLC (Example 2); assay type: physicochemical
Method: A multivariate statistical design of experiments was conducted to assess factors controlling the level of chlorohydrin degradation product as a function of processing parameters and storage time over six months. The complexation was performed in the proportion and parameters given in Example 1, with the following modifications: (i) the complexation process was performed at 2 L batch size; (ii) the final pH of solution before vial filling was varied for purposes of the experiment from 3.0, to 4.0; (iii) sodium chloride was spiked into SBECD in some experiments to create a high sodium chloride condition; (iv) water content of the lyophilized final product in stoppered vials was produced at high and low sodium chloride conditions via early termination and stoppering of vials to create a higher residual water content condition.
The solution of complexed carfilzomib for injection bulk solution pre-lyophilization included aqueous 5 mg/mL carfilzomib, 250 mg/mL Captisol® (SBECD) and 4.86 mg/mL citric acid, pH adjusted with aqueous sodium hydroxide. Compounding of the bulk solutions for lyophilization followed the procedure detailed in Example 1 with the following manipulations to create solutions with different specific attributes: • 1. pH was adjusted to 3.0 and 4.0 • 2. Sodium chloride was spiked into the Captisol® to create a “High Chloride” condition Captisol® manufactured by Cydex, a subsidiary of Ligand, has a standard product analysis range for sodium chloride from 0.05% to 0.2% (w/v). […] 400 g of this Captisol® was required per batch for the process to be performed at 2 L scale batches of complexation processing (in same proportions and general parameters per Example 1). To create the “high chloride” condition, 0.6 g of NaCl was added to 399.4 g of Captisol® which thus mimicked what a batch containing 0.2% chloride Captisol® would be comprised of.
In order to generate two (2) moisture content conditions in the final lyophilized vials, two (2) sets of 61.8 mg/vial (of CFZ-API) samples were lyophilized. The first cycle generated the “dry” sample set of vials containing approximately 0.6% residual water per Example 1 lyophilization parameters. For the second sample set, lyophilization was terminated and vials stoppered earlier in the secondary drying phase to generate the “wet” condition vials, with residual moisture approximately 2.4% water per vial initially.
The bulk solution of complexed carfilzomib was analyzed during manufacture by High Performance Liquid Chromatography (HPLC) to accurately quantify the concentration of dissolved and complexed carfilzomib drug substance. Subsequently, additional water was added to accurately dilute the bulk complexed solution. After this dilution step, HPLC was used again to ensure a target concentration of 5.0 mg/mL was achieved. Samples of the three (3) final bulk solutions were analyzed for potency and purity confirmation testing by HPLC. […] Karl Fischer Coulometry method was used for the water content determination in the lyophilized drug product.

CC(C)C[C@H](NC(=O)[C@H](CCc1ccccc1)NC(=O)CN1CCOCC1)C(=O)N[C@@H](Cc1ccccc1)C(=O)N[C@@H](CC(C)C)C(=O)[C@@]1(C)CO1 [carfilzomib]
difference in solubility between low and high temperature (FIG. 6) [1]: No significant differences in solubility | solubility (physchem; pH 1, simulated gastric fluid): 1800 µg/mL (≈ 2500 µM) | solubility (physchem; pH 3, aqueous buffer): 20 µg/mL (≈ 27.8 µM) | solubility (physchem; pH 5, aqueous buffer): 2 µg/mL (≈ 2.78 µM) | solubility (physchem; water): 2 µg/mL (≈ 2.78 µM) | extent of solubilization vs API particle size (FIG. 2) ([2]; 24 hour complexation, mean API particle size 21.1 vs 7.5 micrometers): equivalent extent of solubilization | dissolved concentration of CFZ-API ([2]; SBECD/WFI/citric acid slurry, 2° C.-8° C., 24 hours mixing): greater than 5.1 mg/mL | effect of higher SBECD concentration on solubility (FIG. 3) ([2]; process of Example 1): increased the solubility | % Area of CDP after 6 months (HPLC data) ([3]; pH 3.00, water 0.7%, sodium chloride 0.05%, 5° C.): 0.00 % Area | % Area of CDP after 6 months (HPLC data) ([3]; pH 3.00, water 0.7%, sodium chloride 0.05%, 25° C.): 0.14 % Area | % Area of CDP after 6 months (HPLC data) ([3]; pH 3.00, water 0.7%, sodium chloride 0.2%, 5° C.): 0.13 % Area | % Area of CDP after 6 months (HPLC data) ([3]; pH 3.00, water 0.7%, sodium chloride 0.2%, 25° C.): 0.70 % Area | % Area of CDP after 6 months (HPLC data) ([3]; pH 3.00, water 2%, sodium chloride 0.05%, 5° C.): 0.02 % Area | % Area of CDP after 6 months (HPLC data) ([3]; pH 3.00, water 2%, sodium chloride 0.05%, 25° C.): 0.55 % Area | % Area of CDP after 6 months (HPLC data) ([3]; pH 3.00, water 2%, sodium chloride 0.2%, 5° C.): 0.28 % Area | % Area of CDP after 6 months (HPLC data) ([3]; pH 3.00, water 2%, sodium chloride 0.2%, 25° C.): 2.57 % Area | % Area of CDP after 6 months (HPLC data) ([3]; pH 4.00, water 0.7%, sodium chloride 0.05%, 5° C.): 0.00 % Area | % Area of CDP after 6 months (HPLC data) ([3]; pH 4.00, water 0.7%, sodium chloride 0.05%, 25° C.): 0.09 % Area | % Area of CDP after 6 months (HPLC data) ([3]; pH 4.00, water 0.7%, sodium chloride 0.2%, 5° C.): 0.08 % Area | % Area of CDP after 6 months (HPLC data) ([3]; pH 4.00, water 0.7%, sodium chloride 0.2%, 25° C.): 0.36 % Area | % Area of CDP after 6 months (HPLC data) ([3]; pH 4.00, water 2%, sodium chloride 0.05%, 5° C.): 0.02 % Area | % Area of CDP after 6 months (HPLC data) ([3]; pH 4.00, water 2%, sodium chloride 0.05%, 25° C.): 0.35 % Area | % Area of CDP after 6 months (HPLC data) ([3]; pH 4.00, water 2%, sodium chloride 0.2%, 5° C.): 0.18 % Area | % Area of CDP after 6 months (HPLC data) ([3]; pH 4.00, water 2%, sodium chloride 0.2%, 25° C.): 1.71 % Area
